Here are results for seven compounds from patent US9556165B2 (priority 2012, dated 2017).

Common to all, as to test: MIC determination, broth microdilution (CLSI)
Common to all, as to format: cell-based

The subject of assay [1] is P. aeruginosa 2297 (AmpC wt). Particulars: for MIC: Pseudomonas aeruginosa, strain 7.
Assay [2] has as its system E. coli ATCC25922. Particulars: for MIC: Escherichia coli, ATCC25922, strain 1.
For assay [3], the system named is strain 19.
Assay [4] deals with B. fragilis 6688. The note with it: Bacteroides fragilis, 6688, strain 15; read-out: strain 15 MIC.
Assay [5] deals with A. baumannii ATCC15308. Particulars: for MIC: Acinetobacter baumannii, ATCC15308, strain 9.
For assay [6], the system named is E. coli J62. The note with it: for MIC: Escherichia coli, J62, strain 17, read-out: strain 17 MIC.
Assay [7] has as its system C. freundii K21/3034. The note with it: for MIC: Citrobacter freundii, K21/3034, strain 4.
Assay [8] concerns S. pneumoniae 113. The note with it: Streptococcus pneumoniae, 113, strain 14; read-out: strain 14 MIC.
In assay [9] the test system is H. influenzae ATCC 49247. Particulars: Haemophilus influenzae, ATCC49247, strain 13; read-out: strain 13 MIC.
Assay [10] concerns strain 21.
Assay [11] concerns M. morganii 126/3048. Particulars: for MIC: Morganella morganii, 126/3048, strain 5.
The subject of assay [12] is E. cloacae 34654. Particulars: for MIC: Enterobacter cloacae, 34654, strain 3.
Assay [13] deals with strain 20.
Assay [14] deals with E. coli J62-TEM-3. The note with it: for MIC: Escherichia coli, J62TEM3, read-out: strain 18 MIC, strain 18.
Assay [15] has as its system S. aureus 133. The note with it: Staphylococcus aureus, 133, strain 11; read-out: strain 11 MIC.
Assay [16] relates to M. catarrhalis ICB489. The note with it: for MIC: Moraxella catarrhalis, ICB489, strain 12.
Assay [17] deals with P. aeruginosa PAO1. Particulars: for MIC: Pseudomonas aeruginosa, PAO1, strain 6.
Assay [18] concerns K. pneumoniae 60. Particulars: for MIC: Klebsiella pneumoniae, 60, strain 2.
Assay [19] has as its system P. aeruginosa 2297-con (AmpC derepressed). The note with it: for MIC: Pseudomonas aeruginosa, read-out: strain 8 MIC, strain 8.

≈ marks a conversion by molar mass, not a printed value. Where only a bound is given, the exact number is not on record here.

As for `C[C@H]1[C@H](NC(=O)/C(=N\OCc2cc(C(=N)N)cs2)c2csc(N)n2)C(=O)N1S(=O)(=O)O` [Example 32, (2S,3S)-3-{[(2Z)-2-(2-Amino-1,3-thiazol-4-yl)-2-(2-[(4-carbamimidoylthiophen-2-yl)methoxy]imino)acetyl]amino}-2-methyl-4-oxoazetidine-1-sulfonic acid], the MIC in [1] stood at 32 µg/mL (≈ 65.6 µM); in assay [2] it was 1 µg/mL (≈ 2.05 µM); in assay [3], 1 µg/mL (≈ 2.05 µM); in assay [4] it was 3 µg/mL (≈ 6.15 µM); in assay [5], 2 µg/mL (≈ 4.1 µM); in assay [6], 2 µg/mL (≈ 4.1 µM). Further, the MIC in assay [7] was determined as 0.5 µg/mL (≈ 1.03 µM); in assay [8] it was 8 µg/mL (≈ 16.4 µM); in assay [9], 0.5 µg/mL (≈ 1.03 µM); in assay [10], 1 µg/mL (≈ 2.05 µM); in assay [11], 0.5 µg/mL (≈ 1.03 µM); in [12], 0.5 µg/mL (≈ 1.03 µM). In addition, the MIC in [13] is 2 µg/mL (≈ 4.1 µM); in assay [14] it was 32 µg/mL (≈ 65.6 µM); in [15] it was at most 0.063 µg/mL; in assay [16] it was 0.75 µg/mL (≈ 1.54 µM); in [17] it was 16 µg/mL (≈ 32.8 µM).
For the compound `C[C@H]1[C@H](NC(=O)/C(=N\OCCOc2nc(C(=N)N)cs2)c2csc(N)n2)C(=O)N1S(=O)(=O)O` [Example 31, (2S,3S)-3-{[(2Z)-2-(2-Amino-1,3-thiazol-4-yl)-2-({2-[(4-carbamimidoyl-1,3-thiazol-2-yl)oxy]ethoxy}imino)acetyl]amino}-2-methyl-4-oxoazetidine-1-sulfonic acid], the MIC is 8 µg/mL (≈ 15.4 µM) in assay [1]; 0.125 µg/mL (≈ 0.241 µM) in assay [2]; 0.125 µg/mL (≈ 0.241 µM) in assay [3]; 4 µg/mL (≈ 7.71 µM) in [4]; at most 0.063 µg/mL in assay [18]; 1 µg/mL (≈ 1.93 µM) in assay [5]. Further, the MIC was 0.25 µg/mL (≈ 0.482 µM) in [6]; at most 0.063 µg/mL in assay [7]; 8 µg/mL (≈ 15.4 µM) in assay [8]; 0.25 µg/mL (≈ 0.482 µM) in [9]; 0.25 µg/mL (≈ 0.482 µM) in assay [10]; 0.25 µg/mL (≈ 0.482 µM) in assay [11]. Further, the MIC in [12] is 0.25 µg/mL (≈ 0.482 µM); in assay [13], 0.25 µg/mL (≈ 0.482 µM); in assay [14] it was 32 µg/mL (≈ 61.7 µM); in [15] it was at most 0.063 µg/mL; in [16] it was 0.25 µg/mL (≈ 0.482 µM); in assay [17] it was 8 µg/mL (≈ 15.4 µM). In addition, the MIC in assay [19] amounted to 32 µg/mL (≈ 61.7 µM).
On to `C[C@H]1[C@H](NC(=O)/C(=N\OCCOc2ccc(C(=N)NO)cc2)c2csc(N)n2)C(=O)N1S(=O)(=O)O` [Example 21, (2S,3S)-3-{[(2Z)-2-(2-Amino-1,3-thiazol-4-yl)-2-({2-[4-(N-hydroxycarbamimidoyl)phenoxy]ethoxy}imino)acetyl]amino}-2-methyl-4-oxoazetidine-1-sulfonic acid], for which the MIC was 16 µg/mL (≈ 30.3 µM) in assay [1]; 1 µg/mL (≈ 1.9 µM) in assay [2]; 0.5 µg/mL (≈ 0.948 µM) in [3]; 32 µg/mL (≈ 60.7 µM) in assay [4]; 0.25 µg/mL (≈ 0.474 µM) in assay [18]; 8 µg/mL (≈ 15.2 µM) in [5]. Besides, the MIC in assay [6] was determined as 2 µg/mL (≈ 3.79 µM); in [7], 0.25 µg/mL (≈ 0.474 µM); in assay [8], 32 µg/mL (≈ 60.7 µM); in assay [9] it was 1 µg/mL (≈ 1.9 µM); in assay [10], 1 µg/mL (≈ 1.9 µM); in [11] it was 0.5 µg/mL (≈ 0.948 µM). The MIC in assay [12] was determined as 1 µg/mL (≈ 1.9 µM); in assay [13] it was 1 µg/mL (≈ 1.9 µM); in assay [14], 16 µg/mL (≈ 30.3 µM); in assay [15], 0.5 µg/mL (≈ 0.948 µM); in [16], 0.25 µg/mL (≈ 0.474 µM); in assay [17], 16 µg/mL (≈ 30.3 µM).
In the case of `Cc1cc(OCCO/N=C(\C(=O)N[C@@H]2C(=O)N(S(=O)(=O)O)[C@H]2C)c2csc(N)n2)ccc1C(=N)N` [Example 14, (2S,3S)-3-{[(2Z)-2-(2-Amino-1,3-thiazol-4-yl)-2-{[2-(4-carbamimidoyl-3-methylphenoxy)ethoxy]imino}acetyl]amino}-2-methyl-4-oxoazetidine-1-sulfonic acid], the MIC in [1] turned out to be 8 µg/mL (≈ 15.2 µM); in assay [2], 0.5 µg/mL (≈ 0.951 µM); in [3] it was 0.5 µg/mL (≈ 0.951 µM); in [4], 16 µg/mL (≈ 30.4 µM); in assay [18] it was 1 µg/mL (≈ 1.9 µM); in assay [5], 2 µg/mL (≈ 3.81 µM). For the same compound, the MIC was 1 µg/mL (≈ 1.9 µM) in assay [6]; 0.25 µg/mL (≈ 0.476 µM) in assay [7]; 8 µg/mL (≈ 15.2 µM) in assay [8]; 0.5 µg/mL (≈ 0.951 µM) in assay [9]; 0.5 µg/mL (≈ 0.951 µM) in assay [10]; 0.5 µg/mL (≈ 0.951 µM) in assay [11]. Besides, the MIC was 0.5 µg/mL (≈ 0.951 µM) in [12]; 0.5 µg/mL (≈ 0.951 µM) in assay [13]; 32 µg/mL (≈ 60.9 µM) in assay [14]; at most 0.063 µg/mL in assay [15]; 0.25 µg/mL (≈ 0.476 µM) in [16]; 4 µg/mL (≈ 7.61 µM) in assay [17]. Besides, the MIC in assay [19] is 32 µg/mL (≈ 60.9 µM).
As for `C[C@H]1[C@H](NC(=O)/C(=N\OCC(C)(C)Oc2ccc(C(=N)N)cc2)c2csc(N)n2)C(=O)N1S(=O)(=O)O` [Example 17, (2S,3S)-3-{[(2Z)-2-(2-Amino-1,3-thiazol-4-yl)-2-{[2-(4-carbamimidoylphenoxy)-2-methyl-propoxy]imino}acetyl]amino}-2-methyl-4-oxoazetidine-1-sulfonic acid], the MIC in assay [1] worked out at 16 µg/mL (≈ 29.7 µM); in assay [2] it was 2 µg/mL (≈ 3.71 µM); in [3], 1 µg/mL (≈ 1.85 µM); in [4] it was 4 µg/mL (≈ 7.41 µM); in assay [18], 2 µg/mL (≈ 3.71 µM); in assay [5] it was 8 µg/mL (≈ 14.8 µM). Moreover, the MIC in assay [6] is 2 µg/mL (≈ 3.71 µM); in assay [7], 1 µg/mL (≈ 1.85 µM); in [8], 2 µg/mL (≈ 3.71 µM); in assay [9], 1 µg/mL (≈ 1.85 µM); in [10] it was 2 µg/mL (≈ 3.71 µM); in [11], at most 0.063 µg/mL. The MIC in assay [12] was determined as 2 µg/mL (≈ 3.71 µM); in assay [13], 2 µg/mL (≈ 3.71 µM); in [14], 32 µg/mL (≈ 59.3 µM); in assay [15] it was 2 µg/mL (≈ 3.71 µM); in assay [16], 2 µg/mL (≈ 3.71 µM); in assay [17] it was 8 µg/mL (≈ 14.8 µM). Also, the MIC in assay [19] was found to be 32 µg/mL (≈ 59.3 µM).
Take `C[C@H]1[C@H](NC(=O)/C(=N\OCCNc2ccc(C(=N)N)cc2)c2csc(N)n2)C(=O)N1S(=O)(=O)O` [Example 8, (2S,3S)-3-{[(2Z)-2-(2-Amino-1,3-thiazol-4-yl)-2-({2-[(4-carbamimidoylphenyl)amino]ethoxy}imino)acetyl]amino}-2-methyl-4-oxoazetidine-1-sulfonic acid]: the MIC came to 32 µg/mL (≈ 62.7 µM) in assay [1]; 1 µg/mL (≈ 1.96 µM) in [2]; 2 µg/mL (≈ 3.92 µM) in [3]; 16 µg/mL (≈ 31.3 µM) in assay [4]; 0.5 µg/mL (≈ 0.979 µM) in [18]; 4 µg/mL (≈ 7.83 µM) in [5]. In addition, the MIC in [6] was determined as 4 µg/mL (≈ 7.83 µM); in [7], 0.5 µg/mL (≈ 0.979 µM); in assay [8] it was 8 µg/mL (≈ 15.7 µM); in assay [9] it was 1 µg/mL (≈ 1.96 µM); in assay [10], 4 µg/mL (≈ 7.83 µM); in assay [11], 0.25 µg/mL (≈ 0.49 µM). Besides, the MIC in assay [12] turned out to be 2 µg/mL (≈ 3.92 µM); in assay [13] it was 4 µg/mL (≈ 7.83 µM); in assay [15], 0.25 µg/mL (≈ 0.49 µM); in assay [16], 0.5 µg/mL (≈ 0.979 µM); in assay [17] it was 8 µg/mL (≈ 15.7 µM); in assay [19] it was 32 µg/mL (≈ 62.7 µM).
In the case of `C[C@H]1[C@H](NC(=O)/C(=N\OC(COc2ccc(C(=N)N)cc2)C(=O)O)c2csc(N)n2)C(=O)N1S(=O)(=O)O` (mixture of isomers) [Example 26B, (2S and 2R)-2-({[(1Z)-1-(2-Amino-1,3-thiazol-4-yl)-2-{[(2S,3S)-2-methyl-4-oxo-1-sulfoazetidin-3-yl]amino}-2-oxoethylidene]amino}oxy)-3-(4-carbamidinoyl-phenoxy)propanoic acid], in assay [1], the “strain 7 MIC” value came out at 8 µg/mL. Besides, in assay [2] (strain 1), the “strain 1 MIC” value was found to be 2 µg/mL. The “strain 19 MIC” value in assay [3] was 1 µg/mL. In addition, the “strain 2 MIC” value in [18] (strain 2) is 0.5 µg/mL. Also, the “strain 9 MIC” value in assay [5] (strain 9) is 16 µg/mL. Moreover, in [6] (strain 17), the “strain 17 MIC” value turned out to be 2 µg/mL. Besides, the “strain 4 MIC” value in [7] (strain 4) was 2 µg/mL. Besides, the “strain 21 MIC” value in assay [10] came out at 2 µg/mL. In assay [11] (strain 5), the “strain 5 MIC” value is 0.5 µg/mL. Further, the “strain 3 MIC” value in assay [12] (strain 3) is 1 µg/mL. Also, in assay [13], the “strain 20 MIC” value was determined as 2 µg/mL. Also, the “strain 18 MIC” value in assay [14] (strain 18) was found to be 32 µg/mL. In addition, in assay [16] (strain 12), the “strain 12 MIC” value came out at 2 µg/mL. The “strain 6 MIC” value in assay [17] (strain 6) was 4 µg/mL. In addition, in assay [19] (strain 8), the “strain 8 MIC” value stood at 32 µg/mL.
